Laboratory results: article PMC8821502, “Engineering a feedback inhibition-insensitive plant dihydrodipicolinate synthase to increase lysine content in Camelina sativa seeds” (Transgenic Research, 2021)

What was measured:
Experiment in all cases: o-aminobenzaldehyde colorimetric DHDPS assay, […] nm
Format in all cases: biochemical
CgDHDPS = target: T1, CgDHDPS (Corynebacterium glutamicum, UniProt P19808); conditions: 2 mM L-ASA, 35 mM pyruvate, pH 8, 37 °C; E. coli extract
T1 construct: gene dapA; ORF (301 aa) in pUC18; E. coli cell extract, not purified
T1 sequence (P19808 1-301): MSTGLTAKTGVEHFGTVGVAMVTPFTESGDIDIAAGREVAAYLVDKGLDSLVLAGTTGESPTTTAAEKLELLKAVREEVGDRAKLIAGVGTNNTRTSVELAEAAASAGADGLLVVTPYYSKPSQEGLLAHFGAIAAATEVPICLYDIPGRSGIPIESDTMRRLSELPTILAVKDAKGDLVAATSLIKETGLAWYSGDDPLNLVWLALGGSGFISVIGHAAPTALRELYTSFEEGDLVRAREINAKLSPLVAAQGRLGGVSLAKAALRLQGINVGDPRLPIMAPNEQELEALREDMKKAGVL

CsDHDPS B6 (wt CsDHDPS) [1] = target: T2, CsDHDPS B6 (wt CsDHDPS) (Camelina sativa, UniProt A0ABM0Z9P4); conditions: 2 mM L-ASA, 35 mM pyruvate, pH 8, 37 °C; E. coli extract
T2 construct: gene LOC104788368; ORF (365 aa, includes predicted 38-aa chloroplast transit peptide) in pUC18 in-frame with LacZ start codon; E. coli cell extract, not purified; modelled as tetramer

CsDHDPS B6 (wt CsDHDPS) [2] = target: T2, CsDHDPS B6 (wt CsDHDPS); conditions: read-out: % activity remaining at 25 μM lysine

T2 sequence (A0ABM0Z9P4 entry or part of it): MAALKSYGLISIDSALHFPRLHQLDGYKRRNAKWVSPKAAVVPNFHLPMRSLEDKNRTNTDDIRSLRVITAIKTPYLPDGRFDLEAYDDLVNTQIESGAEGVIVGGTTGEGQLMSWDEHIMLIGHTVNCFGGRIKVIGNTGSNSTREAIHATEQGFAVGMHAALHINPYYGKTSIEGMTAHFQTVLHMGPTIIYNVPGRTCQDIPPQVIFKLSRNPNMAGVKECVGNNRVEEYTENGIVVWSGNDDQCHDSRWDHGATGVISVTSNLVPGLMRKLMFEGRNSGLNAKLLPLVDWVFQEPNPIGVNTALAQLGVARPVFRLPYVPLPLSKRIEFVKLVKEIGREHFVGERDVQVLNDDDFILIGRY

SMILES: N[C@@H](CC=O)C(=O)O [L-aspartic-β-semi-aldehyde]
- o-aminobenzaldehyde colorimetric DHDPS assay, 520 nm (CgDHDPS): using L-aspartic-β-semi-aldehyde (L-ASA) as the substrate
- o-aminobenzaldehyde colorimetric DHDPS assay, 520 nm (CsDHDPS B6 (wt CsDHDPS) [1]): using L-aspartic-β-semi-aldehyde (L-ASA) as the substrate

SMILES: NCCCC[C@H](N)C(=O)O [lysine]
- remaining activity at 25 µM (CsDHDPS B6 (wt CsDHDPS) [2]): 20%
